According to publication PMC4775997, “Imidazopyridazine Inhibitors of Plasmodium falciparum Calcium-Dependent Protein Kinase 1 Also Target Cyclic GMP-Dependent Protein Kinase and Heat Shock Protein 90 To Kill the Parasite at Different Stages of Intracellular Development” (Antimicrobial Agents and Chemotherapy, 2016):
Like-named read-outs stand apart in the source and are kept apart here.

What was measured:
[1] = tested on: P. falciparum 3D7; assay: SYBR green I growth assay, wild-type parasites; format: cell-based, Plasmodium falciparum; details: Plasmodium falciparum
[2] = target: T1, PfPKG (Plasmodium falciparum, UniProt Q8I719); assay: Microfluidic fluorescent shift assay of cGMP-dependent protein kinase activity; format: biochemical
T1 construct: plasmids (pTrcHisC) encoding full-length PfPKG and PfPKG T618Q with N-terminal His tags; His tag (N); made in house; host or cells: E. coli Rosetta2(DE3)

[3] = target: T2, PfPKG T618Q (Plasmodium falciparum, UniProt Q8I719, T618Q); assay: biochemical; format: biochemical
T2 construct: plasmids (pTrcHisC) encoding full-length PfPKG and PfPKG T618Q with N-terminal His tags; His tag (N); made in house; host or cells: E. coli Rosetta2(DE3)
T2 sequence (Q8I719 whole entry T618Q): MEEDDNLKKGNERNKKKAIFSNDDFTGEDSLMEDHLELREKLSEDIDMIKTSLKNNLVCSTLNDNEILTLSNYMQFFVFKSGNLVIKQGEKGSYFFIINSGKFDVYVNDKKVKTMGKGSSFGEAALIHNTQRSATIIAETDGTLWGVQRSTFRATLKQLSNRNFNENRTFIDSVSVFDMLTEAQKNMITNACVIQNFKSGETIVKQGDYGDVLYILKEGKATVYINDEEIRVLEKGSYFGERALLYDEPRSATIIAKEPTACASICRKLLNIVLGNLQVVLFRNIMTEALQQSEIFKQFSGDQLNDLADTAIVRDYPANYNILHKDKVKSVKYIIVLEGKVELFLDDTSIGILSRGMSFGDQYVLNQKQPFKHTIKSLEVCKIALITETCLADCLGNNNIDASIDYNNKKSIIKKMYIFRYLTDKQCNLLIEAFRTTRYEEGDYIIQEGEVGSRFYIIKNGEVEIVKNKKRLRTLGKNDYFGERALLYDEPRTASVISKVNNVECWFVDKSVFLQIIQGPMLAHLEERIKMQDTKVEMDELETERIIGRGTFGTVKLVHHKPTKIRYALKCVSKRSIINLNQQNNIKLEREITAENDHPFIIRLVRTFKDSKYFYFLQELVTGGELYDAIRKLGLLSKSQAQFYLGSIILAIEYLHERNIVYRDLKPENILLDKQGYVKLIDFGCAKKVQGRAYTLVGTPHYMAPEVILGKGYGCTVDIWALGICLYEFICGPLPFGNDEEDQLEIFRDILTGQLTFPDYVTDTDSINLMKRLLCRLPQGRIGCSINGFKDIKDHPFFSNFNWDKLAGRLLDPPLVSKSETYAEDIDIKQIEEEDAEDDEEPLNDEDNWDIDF

[4] = tested on: 3D7 PKG T618Q; assay: microbe, parasite or virus in culture; format: cell-based, Plasmodium falciparum; details: Plasmodium falciparum, 3D7, 96 h, read-out: Parasite inhibition EC50, 3D7 PKG T618Q
[5] = target: PfHSP90 (Plasmodium falciparum, UniProt Q8IC05); assay: Tryptophan fluorescence binding, full-length PfHSP90
PfHSP90, sequence (Q8IC05 entry or part of it): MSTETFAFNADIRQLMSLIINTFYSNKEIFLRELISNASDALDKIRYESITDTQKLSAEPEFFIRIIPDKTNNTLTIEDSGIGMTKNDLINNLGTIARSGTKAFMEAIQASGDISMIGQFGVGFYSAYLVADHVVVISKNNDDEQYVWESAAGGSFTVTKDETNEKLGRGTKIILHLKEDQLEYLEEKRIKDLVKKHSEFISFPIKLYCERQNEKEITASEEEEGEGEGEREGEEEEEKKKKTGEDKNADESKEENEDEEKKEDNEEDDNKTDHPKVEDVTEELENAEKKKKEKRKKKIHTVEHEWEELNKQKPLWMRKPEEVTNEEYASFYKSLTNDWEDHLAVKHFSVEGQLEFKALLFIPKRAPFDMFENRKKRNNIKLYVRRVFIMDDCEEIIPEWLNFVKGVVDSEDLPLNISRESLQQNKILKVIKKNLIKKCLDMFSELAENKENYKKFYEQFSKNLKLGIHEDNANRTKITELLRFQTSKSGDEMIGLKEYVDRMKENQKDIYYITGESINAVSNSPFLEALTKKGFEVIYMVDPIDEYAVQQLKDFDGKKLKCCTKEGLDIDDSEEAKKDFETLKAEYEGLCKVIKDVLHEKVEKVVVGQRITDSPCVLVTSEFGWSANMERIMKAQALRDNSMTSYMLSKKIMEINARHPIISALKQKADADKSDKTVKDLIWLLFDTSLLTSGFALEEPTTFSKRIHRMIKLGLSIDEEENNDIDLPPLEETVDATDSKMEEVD
Protocol: (§1) The PCR product was cloned into pRSET-A (Life Technologies) between the BamHI and XhoI sites. Positive clones were confirmed by restriction digestion and sequencing. The clone was transformed into Escherichia coli Rosetta(pLysS) cells, and protein was expressed by induction with 0.1 mM isopropyl β-D-1-thiogalactopyranoside (IPTG) at 37°C for 2 h. PfHSP90 proteins were purified using Ni-nitrilotriacetic acid (NTA) affinity chromatography (Qiagen) as described in the manufacturer's protocol.
Tryptophan fluorescence analysis was performed using a PerkinElmer LS55 luminescence spectrometer. […] The binding buffer used for the reaction contained 50 mM Tris-HCl, pH 7.4, and 1 mM EDTA. Samples were excited at 280 nm, and tryptophan fluorescence measurements were carried out by scanning the emission spectrum in the wavelength range 300 to 400 nm. A maximum wavelength (λmax) of 346 nm was selected for all the calculations. The slit widths of excitation and emission were set at 2.5 and 5 nm, respectively. The difference in fluorescence intensity between protein alone and protein with various concentrations of 17-AAG or compound D was calculated and plotted against the different concentrations of the respective ligand used. The resultant hyperbolic curve was analyzed with GraphPad Prism software, using nonlinear regression analysis with single-site-specific binding as described previously ([32]).

[6] = target: PfHSP90-NTD (Plasmodium falciparum, UniProt Q8IC05); assay: Tryptophan fluorescence binding, PfHSP90 N-terminal domain
PfHSP90-NTD, sequence (Q8IC05 entry or part of it): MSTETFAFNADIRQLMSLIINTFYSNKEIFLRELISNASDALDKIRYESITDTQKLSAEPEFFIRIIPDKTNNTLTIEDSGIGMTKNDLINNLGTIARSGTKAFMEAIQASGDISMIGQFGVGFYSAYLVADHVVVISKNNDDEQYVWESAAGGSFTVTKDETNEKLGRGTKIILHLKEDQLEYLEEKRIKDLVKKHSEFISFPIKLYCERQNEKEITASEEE
Description: PfCDPK1 and PfCDPK1 T145G proteins were produced using methods described elsewhere ([23]). The PfHSP90 N-terminal domain (NTD) comprises the first 223 amino acids of PfHSP90. This region was amplified from the full-length PfHSP90-pRSET-A construct ([32]) using the following primers: primer 7, […]; primer 8, […].
as §1, with “PfHSP90 proteins were purified using Ni-nitrilotriacetic acid (NTA) affinity chromatography (Qiagen) as described in the manufacturer's protocol.” left out
Tryptophan fluorescence analysis was performed using a PerkinElmer LS55 luminescence spectrometer. […] Samples were excited at 280 nm, and tryptophan fluorescence measurements were carried out by scanning the emission spectrum in the wavelength range 300 to 400 nm. […] The difference in fluorescence intensity between protein alone and protein with various concentrations of 17-AAG or compound D was calculated and plotted against the different concentrations of the respective ligand used. The resultant hyperbolic curve was analyzed with GraphPad Prism software, using nonlinear regression analysis with single-site-specific binding as described previously ([32]).

[7] = tested on: trophozoite cell lysate; assay: Affinity purification of targets of biotinylated compound D, LC-MS/MS; format: binding, Plasmodium falciparum; details: biotin linked to R1 group of compound D, streptavidin-agarose
Protocol: A total of 200 μl of high-capacity streptavidin agarose (Thermo Scientific) was resuspended in 1 ml of 250 μg/ml biotinylated compound D solution or a DMSO control. After incubation with mixing for 1 h at room temperature, unbound compound was removed by extensive washing with phosphate-buffered saline (PBS). The resin was incubated with trophozoite lysate containing 2 mg of protein in a total volume of 1.5 ml overnight at 4°C. The lysate was prepared by resuspending trophozoites in 20 mM Tris-HCl, pH 8.0, 10 mM MgCl2, 250 mM NaCl, 0.5 mM tris(2-carboxyethyl)phosphine (TCEP), 1× protein phosphatase inhibitor (Sigma-Aldrich), 1× complete protease inhibitors (Roche), and 0.1% Triton X-100 (Sigma-Aldrich). Insoluble proteins were removed by centrifugation at 15,000 × g for 20 min, and protein was quantitated using a detergent-compatible (DC) protein assay (Bio-Rad). […]
Proteins were run 4 mm into a 10% NuPAGE Bis-Tris gel (Life Technologies) and then excised using a clean scalpel blade. […] The resulting digests were analyzed by liquid chromatography-tandem mass spectrometry (LC-MS/MS) using an Ultimate 3000 nanoRSLC high-performance liquid chromatograph (HPLC), equipped with a 50-cm by 75-μm Acclaim Pepmap C18 column, coupled to a linear trap quadrupole (LTQ) Orbitrap Velos Pro equipped with a Nanoflex electrospray source (all Thermo Scientific). […]

[8] = tested on: P. falciparum 3D7; assay: Microscopic examination of Giemsa-stained smears (stage of action)
[9] = target: T3, CDPK1 T145G (Plasmodium falciparum, UniProt P62344, T145G); assay: ParM ADP biosensor assay, CDPK1 T145G; format: biochemical
T3 construct: PfCDPK1 and PfCDPK1 T145G proteins were produced using methods described elsewhere; made in house
T3 sequence (P62344 whole entry T145G): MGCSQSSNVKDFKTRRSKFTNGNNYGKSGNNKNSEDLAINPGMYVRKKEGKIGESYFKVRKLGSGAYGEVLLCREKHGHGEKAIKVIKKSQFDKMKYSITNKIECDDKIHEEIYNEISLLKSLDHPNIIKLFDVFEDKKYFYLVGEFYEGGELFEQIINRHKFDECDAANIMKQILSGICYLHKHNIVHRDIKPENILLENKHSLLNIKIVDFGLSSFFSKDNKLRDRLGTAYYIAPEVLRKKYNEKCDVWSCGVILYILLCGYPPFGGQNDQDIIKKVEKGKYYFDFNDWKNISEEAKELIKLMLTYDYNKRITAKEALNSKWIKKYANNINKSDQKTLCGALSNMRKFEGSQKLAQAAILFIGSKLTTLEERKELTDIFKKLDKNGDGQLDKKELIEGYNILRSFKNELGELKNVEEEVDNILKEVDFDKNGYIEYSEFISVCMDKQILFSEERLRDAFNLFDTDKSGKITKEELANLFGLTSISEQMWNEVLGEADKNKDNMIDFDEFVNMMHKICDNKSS

[10] = tested on: 3D7 CDPK1 T145T-HA; assay: SYBR green assay, 3D7 CDPK1 T145T-HA line; format: cell-based; details: Plasmodium falciparum, 3D7, read-out: EC50, 3D7 CDPK1 T145T-HA
Protocol: (§2) Aliquots of 100 μl of P. falciparum cultures 24 h after erythrocyte invasion were transferred into 96-well culture dishes. Cells were incubated with inhibitors for 48 or 96 h (starting parasitemias were 0.3% and 0.03%, respectively). All drug treatments were carried out in duplicate at a final dimethyl sulfoxide (DMSO) concentration of 0.05%. After incubation, a modification of a previously described SYBR green assay was performed ([27]). Cells were lysed by the addition of 25 μl of buffer (20 mM Tris-HCl, pH 8.0, 2 mM EDTA, pH 8.0, 1.6% Triton X-100, 0.16% saponin, 10× SYBR green I [Life Technologies]). After incubation in the dark for 2 h, fluorescence of the samples was determined using a FLUOStar Omega plate reader (BMG Labtech) with excitation and emission filters of 485 nm and 520 nm, respectively. EC50s were calculated from a four-parameter logistical fit of the data using Prism software (GraphPad Software, Inc.).
(§3) Parasites expressing CDPK1 T145G and CDPK1 T145T were generated as described previously ([28]). Briefly, a region of homology to facilitate integration of the plasmid via single-crossover homologous recombination was amplified from P. falciparum 3D7 genomic DNA at 194 bp upstream of the ATG to bp 435 of the open reading frame using primers 1 and 2 for the wild-type (WT) version and primers 1 and 3 for the glycine version. […]

[11] = tested on: 3D7 CDPK1 T145G-HA; assay: SYBR green assay, 3D7 CDPK1 T145G-HA line; format: cell-based; details: Plasmodium falciparum, 3D7, read-out: EC50, 3D7 CDPK1 T145G-HA
Protocol: as §2, §3

[12] = target: WT CDPK1 (Plasmodium falciparum, UniProt P62344); assay: biochemical
WT CDPK1, sequence (P62344 whole entry): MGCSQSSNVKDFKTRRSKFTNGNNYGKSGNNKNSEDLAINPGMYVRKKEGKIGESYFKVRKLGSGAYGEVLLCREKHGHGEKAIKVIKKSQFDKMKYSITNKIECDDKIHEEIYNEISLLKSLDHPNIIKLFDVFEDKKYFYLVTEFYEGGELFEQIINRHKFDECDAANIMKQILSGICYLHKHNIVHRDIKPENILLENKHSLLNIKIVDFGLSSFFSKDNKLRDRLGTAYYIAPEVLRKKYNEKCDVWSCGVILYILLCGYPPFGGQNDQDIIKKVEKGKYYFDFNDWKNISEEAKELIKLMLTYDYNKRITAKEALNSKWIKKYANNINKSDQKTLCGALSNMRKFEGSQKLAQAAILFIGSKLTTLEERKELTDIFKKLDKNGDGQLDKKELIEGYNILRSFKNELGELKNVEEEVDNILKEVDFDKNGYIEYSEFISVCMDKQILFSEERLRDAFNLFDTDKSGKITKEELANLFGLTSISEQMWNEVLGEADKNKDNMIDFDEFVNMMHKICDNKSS

Row | SMILES | EC50 ([1]; 3D7, 48 h, Table S1, single experiment with duplicate samples, or mean of triplicate experiments (SD), read-out: EC50 48 hours) [µM] | EC50 ([1]; 3D7, 96 h, Table S1, single experiment with duplicate samples, or mean of triplicate experiments (SD), read-out: EC50 96 hours) [µM] | EC50 ([1]; 3D7, SYBR green I, 48 h incubation, mean of three independent experiments (SD), read-out: EC50 after treatment for 48 h) [µM] | EC50 ([1]; 3D7, SYBR green I, 96 h incubation, mean of three independent experiments (SD), read-out: EC50 after treatment for 96 h) [µM] | EC50 ([1]; 3D7, Table 2, SYBR green I, 96 h, single experiment, or mean (SD) of duplicate assays, read-out: Parasite inhibition EC50, 3D7) [µM] | IC50 [2] [µM] | IC50 [3] [µM] | EC50 [4] [µM] | Kd [5] [µM] | Kd [6] [µM] | Significant hit identified by LC-MS/MS [7] | Stage of action (before or after DNA synthesis) ([8]; Table S1, ring-stage parasites, 10x EC50 for 48 h) | Developmental arrest seen in smears ([8]; parasites about 21 h after invasion, 48 h at 10 times the EC50 determined by FACS (compound C 0.3 μM, compound D 4 μM)) | Stage of action ([8]; ring stage parasites treated with 10 times the 96-h EC50 for 48 h) | IC50 [9] [µM] | Increase in sensitivity of CDPK1 T145G over wild-type enzyme ([9]; ratio of IC50s) [fold] | EC50 [10] [µM] | EC50 [11] [µM] | IC50 [12] [µM]
1 | CC(C)CCNc1ccc(-c2cnc3ccc(NC4CCN(C)CC4)nn23)cn1 [Compound 7] | 0.36 | 0.31 | 0.355 | 0.311 | 0.427 | 0.484 | 15.5 | 0.477 | 6.17 | 10.7 | HSP90 | trophozoite | failed to develop beyond late rings/early trophozoites | Trophozoite | – | – | – | – | –
2 | CC(C)(C)n1nc(-c2cccc3ccccc23)c2c(N)ncnc21 [NA-PP1, 1-(1,1-dimethylethyl)-3-(1-naphthalenyl)-1H-pyrazolo[3,4-d]pyrimidin-4-amine] | – | – | – | – | – | – | – | – | – | – | – | – | – | – | 0.15 | 41 | 14.3 | 15.7 | 6.01
